# Values of other authors, collected in patent US10406232B2, “Oral delivery compositions for treating dermatitis disorders in mammals” (Vets Plus, Inc., priority 2015, dated 2019).
# Test system: dendritic cells (DCs)
# Conditions: through sequential p38 MAP kinase phosphorylation and caspase 3-activation
compound,measurement,value
CC(C)[C@]12O[C@H]1[C@@H]1O[C@]13[C@]1(O[C@H]1C[C@H]1C4=C(CC[C@@]13C)C(=O)OC4)[C@@H]2O [triptolide],concentration that induces apoptosis of DCs,≥ 20 ng/mL
